Test results reported in patent US10662218B2, “Analogs of celastrol” (ERX Pharmaceuticals, Inc., priority 2015, dated 2020).
Values after ≈ are worked out from the molar mass of the structure shown. Values joined by “and” are separate entries in the source; they are usually repeats but may differ in a detail not shown here. Equal entries are not always repeated. Where two headings read alike, the source gives them in different places.

Assays:
[1] = Compound solubility in PBS (pH 7.4), LC-MS/MS; details: pH 7.4, aqueous buffer, kinetic from dmso stock; for solubility at 1 h: PBS (pH 7.4)
Description: • Test concentration: 100 μM (1% of DMSO) • Test systems: PBS (pH 7.4) • Incubation condition: shaken (1000 rpm) for 1 h at room temperature • Sample size: Duplicates (n=2) • Bioanalytical method: LC-MS/MS

[2] = tested on: C57BL/6 Diet Induced Obese (DIO) mice; details: I.P. administration
Description: The following test compounds were studied to determine any anti-obesity effect when administered to rodents. First, test compounds were formulated in 50, 100, 200, 400, 500, 1000 and 2000 μg/kg doses and administered once daily in a dose volume of 2 mL/kg i.p. for multiple days. Test compounds were compared to administration of vehicle to mice. The experiment consisted of two phases: a pre-dosing phase and a dosing phase. Weight of the animals in each testing group was measured daily. Fluid samples were taken as well.
Descriptive statistics (n, mean, standard error of the mean, standard deviation) were completed. Additionally, one way analysis of variance followed by Dunnett's post-hoc test was performed on body weight (cumulative body weight change), glucose (glucose percent change), and food consumption (cumulative food consumption). Area under the curve (for body weight, cumulative body weight change, daily body weight change, and food consumption) was computed for treatment groups. An appropriate comparison test, such as one-way analysis of variance and Dunnett's, was performed on the group means for the area under the curve computations.

[3] = tested on: C57BL/6 Diet Induced Obese (DIO) mice; assay: Oral (P.O.) administration study in DIO mice: animal fate (mortality) and clinical observations; details: 2 mg/kg
Description: Male C57BL/6 DIO mice were assigned to 12 groups, and doses of 2 mg/kg Celastrol (ERX1000-4), ERX1006, ERX1007, ERX1037, ERX1060, ERX1077, ERX1107, ERX1149, ERX1168, ERX1177, and Pristimerin were administered to Groups 2 through 12, respectively. Animals were dosed via oral gavage once daily for 10 days at a volume of 2 mL/kg. The vehicle control article was 1% methyl cellulose (400 cps) in citric acid and phosphate buffer.
Parameters assessed included mortality, clinical observations, body weights and food consumption and blood glucose evaluations.
All animals were anesthetized via carbon dioxide, sacrificed, and discarded without further evaluation on Day 11.

[4] = tested on: C57BL/6 Diet Induced Obese (DIO) mice; assay: Oral (P.O.) administration study in DIO mice: in vivo activity, body weights; design: species or system mouse; details: for Individual Body Weight: individual male animals; for change in vivo at 2 mg/kg: Mus musculus, po, read-out: Body weight, %-Diff; for Individual Body Weight, DSNG 1: dosing phase day 1; for Individual Body Weight, DSNG 2: dosing phase day 2; for Individual Body Weight, PRED 11: pre-dose phase day 11 (baseline); for Individual Body Weight, PRED 12: pre-dose phase day 12 (baseline); for Individual Body Weight, PRED 13: pre-dose phase day 13 (baseline); for Individual Body Weight, PRED 14: pre-dose phase day 14 (baseline)
Procedure, shortened: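 Male C57BL/6 DIO mice (21-22 weeks, 29.8-40.1 g) were gavage-acclimated with vehicle, then dosed orally once daily for 10 days at 2 mL/kg. Body weight was recorded daily before dosing. Cumulative change and AUC were analysed by one-way ANOVA with Dunnett's test.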

[5] = Solubility (μM) Mean, Table 6-B, test concentration 100 μM (1% of DMSO), shaken (1000 rpm) 1 h at room temperature, n = 2
[6] = individual male DIO mouse, 2 mg/kg, 2 mg/kg
[7] = individual male DIO mouse, group dosed 2 mg/kg, 2 mg/kg
[8] = individual male DIO mouse of the 2 mg/kg group

## CCNC(=O)OC1=C(C)C2=CC=C3[C@@](C)(CC[C@@]4(C)[C@@H]5C[C@](C)(C#N)CC[C@]5(C)CC[C@]34C)C2=CC1=O [ERX1047]
[1]; [5]
  solubility at 1 h: 1.13 µM (≈ 0.568 µg/mL)
[1]; Solubility (μM), Table 6-D
  solubility at 1 h: 1.13 µM (≈ 0.568 µg/mL)
[2]; dose 100 μg/kg
  activity: −
[2]; dose 400 μg/kg
  activity: ++

## CC1=C(O)C(=O)C=C2C1=CC=C1[C@@]2(C)CC[C@@]2(C)[C@@H]3C[C@](C)(N(C)C)CC[C@]3(C)CC[C@]12C [ERX1177]
[3]; mouse, in vivo
  Individual Animal Fate: Fate Status: Scheduled Sacrifice
[4]; 2 mg/kg, Phase Day DSNG 3
  Individual Body Weight: 31.8 g (2×) and 34.6 g (2×) and 38.2 g
[4]; 2 mg/kg, Phase Day DSNG 4
  Individual Body Weight: 31.2 g and 30.8 g and 34.8 g and 37.7 g and 34.2 g
[4]; 2 mg/kg, Phase Day DSNG 5
  Individual Body Weight: 31.3 g and 30.9 g and 34.2 g and 38.0 g and 34.4 g
[4]; 2 mg/kg, Phase Day DSNG 6
  Individual Body Weight: 31.4 g and 30.1 g and 33.7 g and 38.1 g and 34.4 g
[4]; 2 mg/kg, Phase Day DSNG 7
  Individual Body Weight: 31.4 g and 29.9 g and 33.7 g and 38.0 g and 34.1 g
[4]; 2 mg/kg, Phase Day DSNG 8
  Individual Body Weight: 31.0 g and 29.8 g and 33.4 g and 37.8 g and 33.7 g
[4]; DIO mice, male, 2 mg/kg, phase DSNG, Day 7
  Body weight, Mean: 33.4 g
[4]; DIO mice, male, 2 mg/kg, phase DSNG, Day 8
  Body weight, Mean: 33.1 g
[4]; DIO mice, male, 2 mg/kg, phase DSNG, Day 9
  Body weight, Mean: 33.0 g
[4]; DIO mice, male, 2 mg/kg, phase DSNG, Day 10
  Body weight, Mean: 33.1 g
[4]; DIO mice, male, 2 mg/kg, phase DSNG, Day 11
  Body weight, Mean: 33.0 g
[4]; Day 1, DSNG phase, 2 mg/kg, male, N=5
  Body weight, Mean: 34.9 g
[4]; Day 2, DSNG phase, 2 mg/kg, male, N=5
  Body weight, Mean: 34.4 g
[4]; Day 3, DSNG phase, 2 mg/kg, male, N=5
  Body weight, Mean: 34.2 g
[4]; Day 4, DSNG phase, 2 mg/kg, male, N=5
  Body weight, Mean: 33.7 g
[4]; Day 5, DSNG phase, 2 mg/kg, male, N=5
  Body weight, Mean: 33.8 g
[4]; Day 6, DSNG phase, 2 mg/kg, male, N=5
  Body weight, Mean: 33.5 g
[4]; 24 h, Day 1, DSNG phase, 2 mg/kg, male, difference of group mean
  change in vivo at 2 mg/kg: 2%
[4]; 48 h, Day 2, DSNG phase, 2 mg/kg, male, difference of group mean
  change in vivo at 2 mg/kg: 0%
[4]; 72 h, Day 3, DSNG phase, 2 mg/kg, male, difference of group mean
  change in vivo at 2 mg/kg: 1%
[4]; 96 h, Day 4, DSNG phase, 2 mg/kg, male, difference of group mean
  change in vivo at 2 mg/kg: 1%
[4]; 120 h, Day 5, DSNG phase, 2 mg/kg, male, difference of group mean
  change in vivo at 2 mg/kg: 0%
[4]; 144 h, Day 6, DSNG phase, 2 mg/kg, male, difference of group mean
  change in vivo at 2 mg/kg: 0%
[4]; 168 h, DIO mice, male, 2 mg/kg, phase DSNG, Day 7, difference of group mean from vehicle group 1
  change in vivo at 2 mg/kg: 0%
[4]; 192 h, DIO mice, male, 2 mg/kg, phase DSNG, Day 8, difference of group mean from vehicle group 1
  change in vivo at 2 mg/kg: -2%
[4]; 216 h, DIO mice, male, 2 mg/kg, phase DSNG, Day 9, difference of group mean from vehicle group 1
  change in vivo at 2 mg/kg: -1%
[4]; 240 h, DIO mice, male, 2 mg/kg, phase DSNG, Day 10, difference of group mean from vehicle group 1
  change in vivo at 2 mg/kg: -1%
[4]; 264 h, DIO mice, male, 2 mg/kg, phase DSNG, Day 11, difference of group mean from vehicle group 1
  change in vivo at 2 mg/kg: -3%
[4]; [6]
  Individual Body Weight, DSNG 1: 32.0 g and 32.1 g and 35.5 g and 40.1 g and 35.0 g
  Individual Body Weight, DSNG 2: 32.2 g and 31.9 g and 34.5 g and 38.4 g and 34.9 g
[4]; [7]
  Individual Body Weight, PRED 11: 33.8 g and 33.3 g and 37.1 g and 41.9 g and 35.5 g
  Individual Body Weight, PRED 12: 32.5 g and 33.7 g and 36.7 g and 41.6 g and 36.2 g
  Individual Body Weight, PRED 13: 31.8 g and 32.6 g and 35.6 g and 42.2 g and 36.1 g
  Individual Body Weight, PRED 14: 31.7 g and 33.1 g and 36.4 g and 41.7 g and 36.2 g
[1]; [5]
  solubility at 1 h: 49.5 µM (≈ 22.3 µg/mL)
[1]; Solubility (μM), Table 6-D
  solubility at 1 h: 49.5 µM (≈ 22.3 µg/mL)

## COC1=C(C)C2=CC=C3[C@@](C)(CC[C@@]4(C)[C@@H]5C[C@](C)(C(N)=O)CC[C@]5(C)CC[C@]34C)C2=CC1=O [ERX1031]
[1]; [5]
  solubility at 1 h: 8.56 µM (≈ 3.97 µg/mL)
[1]; Solubility (μM), Table 6-D
  solubility at 1 h: 8.56 µM (≈ 3.97 µg/mL)
[2]; dose 100 μg/kg
  activity: −
[2]; dose 400 μg/kg
  activity: ++

## CC(=O)OC1=C(C)C2=CC=C3[C@@](C)(CC[C@@]4(C)[C@@H]5C[C@](C)(C(=O)O)CC[C@]5(C)CC[C@]34C)C2=CC1=O [ERX1007]
[3]; individual male animals, phase of fate Dosing, phase week 2, phase day 11
  Individual Animal Fate: Fate Status: Scheduled Sacrifice
[4]; 2 mg/kg oral gavage once daily, dosing phase Day 1
  Body weight %-Diff: 1%
[4]; 2 mg/kg oral gavage once daily, dosing phase Day 1, N 5
  Body weight, Mean: 34.5 g
[4]; 2 mg/kg oral gavage once daily, dosing phase Day 2
  Body weight %-Diff: −1%
[4]; 2 mg/kg oral gavage once daily, dosing phase Day 2, N 5
  Body weight, Mean: 34.1 g
[4]; 2 mg/kg oral gavage once daily, dosing phase Day 3
  Body weight %-Diff: −2%
[4]; 2 mg/kg oral gavage once daily, dosing phase Day 3, N 5
  Body weight, Mean: 33.3 g
[4]; 2 mg/kg oral gavage once daily, dosing phase Day 4
  Body weight %-Diff: 0%
[4]; 2 mg/kg oral gavage once daily, dosing phase Day 4, N 5
  Body weight, Mean: 33.3 g
[4]; 2 mg/kg oral gavage once daily, dosing phase Day 5
  Body weight %-Diff: −2%
[4]; 2 mg/kg oral gavage once daily, dosing phase Day 5, N 5
  Body weight, Mean: 33.1 g
[4]; 2 mg/kg oral gavage once daily, dosing phase Day 6
  Body weight %-Diff: −3%
[4]; 2 mg/kg oral gavage once daily, dosing phase Day 6, N 5
  Body weight, Mean: 32.4 g
[4]; Day 7, DSNG phase, 2 mg/kg, male, N=5
  Body weight, Mean: 32.4 g
[4]; Day 8, DSNG phase, 2 mg/kg, male, N=5
  Body weight, Mean: 32.7 g
[4]; Day 9, DSNG phase, 2 mg/kg, male, N=5
  Body weight, Mean: 32.3 g
[4]; Day 10, DSNG phase, 2 mg/kg, male, N=5
  Body weight, Mean: 32.1 g
[4]; Day 11, DSNG phase, 2 mg/kg, male, N=5
  Body weight, Mean: 32.3 g
[4]; 168 h, Day 7, DSNG phase, 2 mg/kg, male, difference of group mean
  change in vivo at 2 mg/kg: -3%
[4]; 192 h, Day 8, DSNG phase, 2 mg/kg, male, difference of group mean
  change in vivo at 2 mg/kg: -3%
[4]; 216 h, Day 9, DSNG phase, 2 mg/kg, male, difference of group mean
  change in vivo at 2 mg/kg: -3%
[4]; 240 h, Day 10, DSNG phase, 2 mg/kg, male, difference of group mean
  change in vivo at 2 mg/kg: -4%
[4]; 264 h, Day 11, DSNG phase, 2 mg/kg, male, difference of group mean
  change in vivo at 2 mg/kg: -5%
[4]; [8]
  Individual Body Weight, PRED 11: 36.8 g and 39.8 g and 35.7 g and 32.5 g and 37.6 g
  Individual Body Weight, PRED 12: 35.2 g and 38.9 g and 35.7 g and 31.7 g and 36.9 g
  Individual Body Weight, PRED 13: 34.1 g and 38.7 g and 35.3 g and 32.3 g and 36.5 g
  Individual Body Weight, PRED 14: 34.2 g and 38.6 g and 35.2 g and 32.7 g and 37.3 g
[4]; [6]
  Individual Body Weight, DSNG 1: 33.8 g and 36.3 g and 34.7 g and 31.4 g and 36.2 g
  Individual Body Weight, DSNG 2: 33.2 g and 36.4 g and 34.2 g and 30.3 g and 36.2 g
[1]; Solubility (μM)
  solubility: 48.8 µM (≈ 24 µg/mL)
[1]; Solubility (μM) Mean
  solubility: 48.8 µM (≈ 24 µg/mL)
